The values that follow come from publication PMC5116409 (Nanomedicine : nanotechnology, biology, and medicine, 2016).

Data set [1] addresses T1, HIV-1 reverse transcriptase G190A (Human immunodeficiency virus type 1 group M subtype B, UniProt P03366, G789A). Description: RNA-dependent DNA polymerization by recombinant HIV-1 RT. The format is biochemical.
Data set [2] addresses T2, HIV-1 reverse transcriptase Wild type (Human immunodeficiency virus type 1 group M subtype B, UniProt P03366). In words: biochemical. To be noted: RNA-dependent DNA polymerization, IC50, Wild type RT; From DMSO stock solution.
The target of data set [3] is T3, HIV-1 reverse transcriptase V106A (Human immunodeficiency virus type 1 group M subtype B, UniProt P03366, V705A). Description: RNA-dependent DNA polymerization by recombinant HIV-1 RT. The format is biochemical.
Data set [4] concerns the target T4, HIV-1 reverse transcriptase K103N (Human immunodeficiency virus type 1 group M subtype B, UniProt P03366, K702N). The data set is described as above. It counts as biochemical.
Data set [5] has as its target T3, HIV-1 reverse transcriptase V106A. Description: DNA-dependent DNA polymerization by recombinant HIV-1 RT. The format is biochemical.
Data set [6] in a line: toxicity to cells, WST-1 test. The format is cell-based. Conditions: human.
Data set [7] has as its target T5, HIV-1 reverse transcriptase K103N+Y181C (Human immunodeficiency virus type 1 group M subtype B, UniProt P03366, K702N/Y780C). In words: DNA-dependent DNA polymerization by recombinant HIV-1 RT. It counts as biochemical. Conditions: From DMSO stock solution.
For data set [8], the target named is T2, HIV-1 reverse transcriptase Wild type. The data set is described as above. Conditions: From DMSO stock solution. The format is biochemical.
Data set [9] concerns the target T5, HIV-1 reverse transcriptase K103N+Y181C. In words: RNA-dependent DNA polymerization by recombinant HIV-1 RT. The format is biochemical. Conditions: From DMSO stock solution.
The target of data set [10] is T6, HIV-1 reverse transcriptase Y181C (Human immunodeficiency virus type 1 group M subtype B, UniProt P03366, Y780C). Described as above. The format is biochemical.
Data set [11] concerns the target T7, HIV-1 reverse transcriptase L100I (Human immunodeficiency virus type 1 group M subtype B, UniProt P03366, L699I). The description is as above. It counts as biochemical.
Data set [12] deals with T7, HIV-1 reverse transcriptase L100I. Description: DNA-dependent DNA polymerization by recombinant HIV-1 RT. It counts as biochemical.
Data set [13] deals with T6, HIV-1 reverse transcriptase Y181C. Described as above. It counts as biochemical.
For data set [14], the target named is T4, HIV-1 reverse transcriptase K103N. Described as above. The format is biochemical.
Data set [15] has as its target T1, HIV-1 reverse transcriptase G190A. Described as above. It counts as biochemical.

As a reminder, the IC50 is the concentration that gives 50% inhibition. What is called CC50 is the concentration that lowers cell viability or growth by half. Read a low CC50 as greater toxicity to the cells.

`Cc1cc(C)cc(C(=O)c2cc(Cl)ccc2OCCn2c3c(c(=O)[nH]c2=O)CCC3)c1` [Z107, 1-(2-(4-chloro-2-(3,5-dimethylbenzoyl)phenoxy)ethyl)-1,5,6,7-tetrahydro-2H-cyclopenta[d]pyrimidine-2,4(3H)-dione]: the IC50 was 70 ± 20 µM in [1] (Complex with HC-PGC (M5P21OL)); 35 ± 10 µM in data set [1] (From DMSO stock solution); 3 ± 1 µM in [2]; more than 100 µM in [3]; 100 ± 30 µM in data set [4] (Complex with HC-PGC (M5P21OL)); 40 ± 10 µM in data set [4] (From DMSO stock solution). In addition, the concentration for half-maximal inhibition (IC50) in [5] is more than 100 µM; in [7] it was 50 ± 20 µM; in data set [8], 0.7 ± 0.2 µM; in data set [9], 80 ± 30 µM; in data set [10] (Complex with HC-PGC (M5P21OL)) it was 40 ± 10 µM; in data set [10] (From DMSO stock solution), 5 ± 2 µM. For the same compound, the 50% inhibitory concentration (IC50) in data set [11] (Complex with HC-PGC (M5P21OL)) came to 15 ± 4 µM; in data set [11] (From DMSO stock solution), 10 ± 3 µM; in data set [12] (Complex with HC-PGC (M5P21OL)), 1.5 ± 0.2 µM; in data set [12] (From DMSO stock solution), 3 ± 1 µM; in data set [13] (Complex with HC-PGC (M5P21OL)) it was 1.9 ± 0.5 µM; in data set [13] (From DMSO stock solution) it was 6 ± 2 µM. Further, the half-inhibitory concentration (IC50) in data set [14] (Complex with HC-PGC (M5P21OL)) was determined as 95 ± 15 µM; in [14] (From DMSO stock solution) it was 70 ± 2 µM; in [15] (Complex with HC-PGC (M5P21OL)) it was 0.9 ± 0.3 µM; in [15] (From DMSO stock solution), 45 ± 15 µM. This compound gave a 50% cytotoxic concentration (CC50) at 4 h in data set [6] of more than 50 µM.
On to `Cc1cc(C)cc(C(=O)c2cc(C)ccc2OCCn2ccc(=O)[nH]c2=O)c1` [Z007, 1-(2-(2-(3,5-dimethylbenzoyl)-4-methylphenoxy)ethyl)pyrimidine-2,4(1H,3H)-dione], for which the half-maximal inhibitory concentration (IC50) in [1] (Complex with HC-PGC (M5P21OL)) was more than 100 µM; in data set [1] (From DMSO stock solution) it was more than 100 µM; in [2], 50 ± 20 µM; in data set [3], more than 100 µM; in data set [4] (Complex with HC-PGC (M5P21OL)) it was more than 100 µM; in data set [4] (From DMSO stock solution), more than 100 µM. Moreover, the 50% inhibitory concentration (IC50) in data set [5] was more than 100 µM; in data set [7], more than 100 µM; in data set [8], 40 ± 10 µM; in data set [9], more than 100 µM; in data set [10] (Complex with HC-PGC (M5P21OL)), more than 100 µM; in [10] (From DMSO stock solution) it was more than 100 µM. Also, the half-maximal inhibitory concentration (IC50) is more than 100 µM in [11] (Complex with HC-PGC (M5P21OL)); 100 ± 30 µM in data set [11] (From DMSO stock solution); more than 100 µM in data set [12] (Complex with HC-PGC (M5P21OL)); more than 100 µM in [12] (From DMSO stock solution); more than 100 µM in data set [13] (Complex with HC-PGC (M5P21OL)); more than 100 µM in [13] (From DMSO stock solution). For the same compound, the IC50 in data set [14] (Complex with HC-PGC (M5P21OL)), in [14] (From DMSO stock solution), in [15] (Complex with HC-PGC (M5P21OL)) and in data set [15] (From DMSO stock solution) was more than 100 µM throughout. The CC50 at 4 h in data set [6] was more than 50 µM.
As for `O=C(c1cc(Cl)cc(Cl)c1)c1cc(Br)ccc1OCCn1ccc(=O)[nH]c1=O` [Z011, 1-(2-(4-bromo-2-(3,5-dichlorobenzoyl)phenoxy)ethyl)pyrimidine-2,4(1H,3H)-dione], the IC50 is more than 100 µM in [5]; 10 ± 3 µM in data set [7]; 0.7 ± 0.1 µM in data set [8]; more than 100 µM in data set [12] (Complex with HC-PGC (M5P21OL)); 1.8 ± 0.6 µM in [12] (From DMSO stock solution); 22 ± 5 µM in data set [13] (Complex with HC-PGC (M5P21OL)). The concentration for half-maximal inhibition (IC50) in [13] (From DMSO stock solution) was 1.4 ± 0.5 µM; in data set [14] (Complex with HC-PGC (M5P21OL)) it was more than 100 µM; in data set [14] (From DMSO stock solution), 6 ± 1 µM; in data set [15] (Complex with HC-PGC (M5P21OL)), 2.6 ± 0.7 µM; in data set [15] (From DMSO stock solution) it was 1.6 ± 0.3 µM. In data set [6], this compound came in with a CC50 at 4 h of more than 50 µM.
